# Measurements: patent publication US11236046B2, “Substituted heterocyclic sulfonamide compounds useful as TRPA1 modulators” (Genentech, Inc., priority 2013, dated 2022)
# Biological target: human TRPA1 (Homo sapiens (Human), UniProt O75762)
# Assay: FLIPR Tetra calcium influx assay, block of cinnamaldehyde-induced calcium influx in CHO cells expressing TRPA1 (human)
# Type: cell-based
# Conditions: 20 min compound incubation, 75 uM cinnamaldehyde (~EC80), Hill coefficient fixed to 1.5, read-out: hTRPA1 AUC IC50
# Description: IC50 Determinations of Exemplified Compounds.
# IC50s (effective concentration) of compounds on the human and rat TRPA1 channels were determined using a FLIPR Tetra instrument. CHO cells expressing TRPA1 were plated into 384-well plates, incubated overnight at 37C, and loaded with BD calcium indicator dye for 1 hr at 37° C. followed by 15 minutes. at room temperature. The assay buffer was Hank's Balanced Salt Solution (HBSS) containing 20 mM HEPES (pH readjusted to 7.4) along with 0.02% BSA.
# Following dye load and plate cool down, compounds were added to the cells using FLIPR Tetra. Plates were then incubated with compounds for 20 minutes at room temperature prior to adding agonist. Following this incubation, ˜EC80 concentration of cinnamaldehyde (75 uM for human TRPA1 and 45 uM for rat TRPA1) was added to active the channels and block of cinnamaldehyde induced calcium influx was measured.
# Fixing the Hill coefficient will generally reduce variability of the IC50 determination. The IC50s were individually examined to make sure the MIN and MAX points were set correctly prior to validation of the results.
# Sequence of human TRPA1 (O75762 whole entry): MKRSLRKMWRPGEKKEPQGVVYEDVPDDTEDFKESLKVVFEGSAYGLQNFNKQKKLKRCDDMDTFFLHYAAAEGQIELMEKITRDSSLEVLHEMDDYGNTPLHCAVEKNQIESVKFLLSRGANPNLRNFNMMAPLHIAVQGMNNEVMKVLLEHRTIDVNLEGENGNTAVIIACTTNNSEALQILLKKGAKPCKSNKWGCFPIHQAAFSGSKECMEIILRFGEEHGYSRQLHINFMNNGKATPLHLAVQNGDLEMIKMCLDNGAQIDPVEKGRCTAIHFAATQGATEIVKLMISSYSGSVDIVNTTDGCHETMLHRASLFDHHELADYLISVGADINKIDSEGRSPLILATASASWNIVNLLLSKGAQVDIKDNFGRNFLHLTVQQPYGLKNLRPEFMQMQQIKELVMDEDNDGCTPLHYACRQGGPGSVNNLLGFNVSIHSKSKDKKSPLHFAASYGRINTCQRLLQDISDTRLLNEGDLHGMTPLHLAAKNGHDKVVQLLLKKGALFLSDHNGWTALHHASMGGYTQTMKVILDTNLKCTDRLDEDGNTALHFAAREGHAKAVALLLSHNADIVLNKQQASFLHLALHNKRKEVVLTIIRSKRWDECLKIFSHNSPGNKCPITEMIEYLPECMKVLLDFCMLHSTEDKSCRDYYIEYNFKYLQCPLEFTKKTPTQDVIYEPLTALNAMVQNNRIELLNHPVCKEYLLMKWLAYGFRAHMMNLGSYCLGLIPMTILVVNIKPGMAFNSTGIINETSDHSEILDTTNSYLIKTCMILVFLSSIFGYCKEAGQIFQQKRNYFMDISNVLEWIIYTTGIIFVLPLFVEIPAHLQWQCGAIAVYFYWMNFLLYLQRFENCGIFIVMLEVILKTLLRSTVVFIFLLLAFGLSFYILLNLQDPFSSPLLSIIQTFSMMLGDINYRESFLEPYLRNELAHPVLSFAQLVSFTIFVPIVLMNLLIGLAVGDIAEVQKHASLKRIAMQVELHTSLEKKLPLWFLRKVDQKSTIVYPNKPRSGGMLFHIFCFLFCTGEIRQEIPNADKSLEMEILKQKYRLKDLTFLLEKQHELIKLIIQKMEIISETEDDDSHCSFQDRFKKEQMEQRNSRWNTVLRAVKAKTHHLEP
row,Compound,IC50 [nM]
1,"N#Cc1cnc(CNC(=O)[C@@H]2C[C@@H](F)CN2S(=O)(=O)c2ccc(F)cc2)cc1-c1ccc(C(F)(F)F)nc1 [Example 71, (2S,4R)—N-[[5-cyano-4-[6-(trifluoromethyl)-3-pyridyl]-2-pyridyl]methyl]-4-fluoro-1-(4-fluorophenyl)sulfonyl-pyrrolidine-2-carboxamide]",176
2,"O=C(NCc1ncc(F)c(-c2ccc(C(F)(F)F)nc2)c1F)[C@@H]1C[C@@H](F)CN1S(=O)(=O)c1ccc(F)cc1 [Example 117, (2S,4R)—N-([3,5-difluoro-4-[6-(trifluoromethyl)pyridin-3-yl]pyridin-2-yl]methyl)-4-fluoro-1-[(4-fluorobenzene)sulfonyl]pyrrolidine-2-carboxamide]",224
3,"Cc1cc(-c2cnc(C(F)(F)F)nc2)cc(CNC(=O)[C@@H]2C[C@@H](F)CN2S(=O)(=O)c2ccc(F)cc2)n1 [Example 48, (2S,4R)-4-fluoro-1-(4-fluorophenyl)sulfonyl-N-[[6-methyl-4-[2-(trifluoromethyl)pyrimidin-5-yl]-2-pyridyl]methyl]pyrrolidine-2-carboxamide]",152
4,"COc1cnc(CNC(=O)[C@]2(C)C[C@@H](F)CN2S(=O)(=O)c2ccc(F)cc2)cc1-c1ccc(C(F)(F)F)nc1 [Example 109, (2S,4R)-4-fluoro-1-(4-fluorophenyl)sulfonyl-N-[[5-methoxy-4-[6-(trifluoromethyl)-3-pyridyl]-2-pyridyl]methyl]-2-methyl-pyrrolidine-2-carboxamide]",164
5,"C[C@H]1[C@H](F)C[C@@H](C(=O)NCc2ccnc(-c3cnc(C(F)(F)F)nc3)c2)N1S(=O)(=O)c1ccc(F)cc1 [Example 193, (2S,4R,5S)-4-fluoro-1-[(4-fluorobenzene)sulfonyl]-5-methyl-N-([2-[2-(trifluoromethyl)pyrimidin-5-yl]pyridin-4-yl]methyl)pyrrolidine-2-carboxamide]",15
6,"O=C(NCc1cncc(-c2cnc(C(F)(F)F)nc2)c1)[C@@H]1C[C@@H](F)CN1S(=O)(=O)c1ccc(F)cc1 [Example 195, (2S,4R)-4-fluoro-1-(4-fluorophenyl)sulfonyl-N-[[5-[2-(trifluoromethyl)pyrimidin-5-yl]-3-pyridyl]methyl]pyrrolidine-2-carboxamide]",795
7,"O=C(NCc1cc(-c2ccc(C(F)(F)F)cc2)ncn1)[C@@H]1C[C@@H]2COC[C@@H]2N1S(=O)(=O)c1ccc(F)cc1 (single isomer, unassigned) [Example 100]",449
8,"O=C(NCc1cc(F)cc(-c2csc(C(F)(F)F)n2)c1)[C@@H]1C[C@@H](F)CN1S(=O)(=O)c1ccc(F)cc1 [Example 173, (2S,4R)-4-fluoro-1-(4-fluorophenyl)sulfonyl-N-[[3-fluoro-5-[2-(trifluoromethyl)thiazol-4-yl]phenyl]methyl]pyrrolidine-2-carboxamide]",111
9,"O=C(NCc1cc(-c2ccc(C(F)(F)F)nc2)ncn1)[C@@H]1C[C@@H](F)CN1S(=O)(=O)c1ccc(F)c(F)c1 [Example 156, (2S,4R)-1-(3,4-difluorophenylsulfonyl)-4-fluoro-N-((6-(6-(trifluoromethyl)pyridin-3-yl)pyrimidin-4-yl)methyl)pyrrolidine-2-carboxamide]",109
10,"O=C(NCc1cc(-c2cnc(C(F)(F)F)cn2)ccn1)[C@@H]1C[C@@H](F)CN1S(=O)(=O)c1ccc(F)cc1 [Example 82, (2S,4R)-4-fluoro-1-(4-fluorophenyl)sulfonyl-N-[[4-[5-(trifluoromethyl)pyrazin-2-yl]-2-pyridyl]methyl]pyrrolidine-2-carboxamide]",189
11,"O=C(NCc1cc(N2CCC(C(F)(F)F)CC2)c(C(F)(F)F)cn1)[C@@H]1C[C@@H](F)CN1S(=O)(=O)c1ccc(F)cc1 [Example 130, (2S,4R)-4-fluoro-1-(4-fluorophenyl)sulfonyl-N-[[5-(trifluoromethyl)-4-[4-(trifluoromethyl)-1-piperidyl]-2-pyridyl]methyl]pyrrolidine-2-carboxamide]",52
12,"O=C(NCc1cc(-c2ccc(C(F)(F)F)cc2F)ncn1)[C@@H]1C[C@@H](F)CN1S(=O)(=O)c1ccc(F)cc1 [Example 113, (2S,4R)-4-fluoro-N-((6-(2-fluoro-4-(trifluoromethyl)phenyl)pyrimidin-4-yl)methyl)-1-(4-fluorophenylsulfonyl)pyrrolidine-2-carboxamide]",161
13,"Cc1cc(CNC(=O)[C@@H]2C[C@@H](F)CN2S(=O)(=O)c2ccc(F)cc2)cc(-c2cnc(C(F)(F)F)nc2)n1 [Example 43, (2S,4R)-4-fluoro-1-(4-fluorophenyl)sulfonyl-N-[[2-methyl-6-[2-(trifluoromethyl)pyrimidin-5-yl]-4-pyridyl]methyl]pyrrolidine-2-carboxamide]",47

# Further lines, results first:
row,IC50 [nM],Compound
1,27,"Cc1cc(-c2cnc(C(F)(F)F)nc2)cc(CNC(=O)[C@@H]2[C@@H](F)CCN2S(=O)(=O)c2ccc(F)cc2)n1 [Example 191, (2R,3S)-3-fluoro-1-[(4-fluorobenzene)sulfonyl]-N-([6-methyl-4-[2-(trifluoromethyl)pyrimidin-5-yl]pyridin-2-yl]methyl)pyrrolidine-2-carboxamide]"
2,13,"N#Cc1cnc(-c2ccc(C(F)(F)F)nc2)cc1CNC(=O)[C@@H]1[C@@H](F)CCN1S(=O)(=O)c1ccc(F)cc1 [Example 166, (2R,3S)—N-([5-cyano-2-[6-(trifluoromethyl)pyridin-3-yl]pyridin-4-yl]methyl)-3-fluoro-1-[(4-fluorobenzene)sulfonyl]pyrrolidine-2-carboxamide]"
3,44,O=C(NCc1cc(-c2ccc(C(F)(F)F)nc2)ncn1)[C@@H]1CC2(CC2)CN1S(=O)(=O)c1ccc(F)cc1 [Example 80]
4,38,"O=C(NCc1ccnc(-c2cnc(C(F)(F)F)nc2)c1)[C@@H]1[C@H]2C[C@H]2CN1S(=O)(=O)c1ccc(F)cc1 [Example 172, (1R,4S,5S)-3-(4-fluorophenyl)sulfonyl-N-[[2-[2-(trifluoromethyl)pyrimidin-5-yl]-4-pyridyl]methyl]-3-azabicyclo[3.1.0]hexane-4-carboxamide]"
5,7,"N#Cc1cnc(-c2ccc(C(F)(F)F)cc2)cc1CNC(=O)[C@@H]1C[C@@H](F)CN1S(=O)(=O)c1ccc(F)cc1 [Example 78, (2S,4R)—N-([5-cyano-2-[4-(trifluoromethyl)phenyl]pyridin-4-yl]methyl)-4-fluoro-1-[(4-fluorobenzene)sulfonyl]pyrrolidine-2-carboxamide]"
6,14,"O=C(NCc1cc(Cl)nc(-c2ccc(C(F)(F)F)nc2)c1)[C@@H]1C[C@@H](F)CN1S(=O)(=O)c1ccc(F)cc1 [Example 84, (2S,4R)—N-[[2-chloro-6-[6-(trifluoromethyl)-3-pyridyl]-4-pyridyl]methyl]-4-fluoro-1-(4-fluorophenyl)sulfonyl-pyrrolidine-2-carboxamide]"
7,21,"O=C(NCc1cc(-c2cnc(C(F)(F)F)nc2)ccc1F)[C@]12C[C@H]1CCN2S(=O)(=O)c1ccc(F)cc1 [Example 182, (1R,5S)-4-(4-fluorophenyl)sulfonyl-N-[[2-fluoro-5-[2-(trifluoromethyl)pyrimidin-5-yl]phenyl]methyl]-4-azabicyclo[3.1.0]hexane-5-carboxamide]"
